Laboratory results as given in US20130338106A1, “COMPOUNDS INHIBITING LEUCINE-RICH REPEAT KINASE ENZYME ACTIVITY” (priority 2011, published 2013).

target: T1, LRRK2 G2019S mutant kinase (Homo sapiens, UniProt Q5S007, G2019S); test: LRRK2 G2019S LanthaScreen TR-FRET kinase assay; type: biochemical; conditions: LRRK2 G2019S GST-tagged protein, 100 μM ATP, LRRKtide substrate; read-out: IC50 (potency)
T1 construct: GST; purchased Invitrogen PV4882
Description: Activity of compounds against LRRK2 G2019S mutant kinase function was tested in a LANTHAScreen® assay as follows: Compounds were diluted in 100% DMSO to the desired test concentrations in white, low-volume 384-well plates (PerkinElmer ProxiPlate® PN: 6008280). TR-FRET kinase reactions (10 μL) were performed with 75 nM Fluorescein-ERM (LRRKtide, Invitrogen, PN:PV4901) substrate in a final assay buffer containing 100 μM ATP and 2 mM DTT diluted in commercially available Kinase Buffer S (Invitrogen PN: PV5213). The final solvent concentration in the assay was 1% DMSO. Reactions were initiated with the addition of 10 ng/well of LRRK2 02019S, GST-tagged protein (Invitrogen PN: PV4882). After incubation of the foil sealed reaction plates at room temperature with low speed mixing for 1 hour, the kinase reaction was stopped and the amount of substrate phosphorylation was detected by addition of 10 μL of 10 mM EDTA and 2 nM Tb-anti-pERM (pLRRKtide antibody, Invitrogen, PN: PV4898) antibody in TR-FRET dilution buffer (Invitrogen PN: PV3574). After a 30 minute incubation at room temperature with low speed mixing, foil seals were removed and measurements were obtained on a PerkinElmer EnVision with excitation 340 nm, emission 520 nm (channel 1): 495 nm (channel 2) settings. Generation of raw data and workup of data to derive the IC50 (potency) and maximal inhibition at concentrations tested were performed using Merck's Assay Data Analyzer (ADA) software.

T1 sequence (Q5S007 whole entry G2019S): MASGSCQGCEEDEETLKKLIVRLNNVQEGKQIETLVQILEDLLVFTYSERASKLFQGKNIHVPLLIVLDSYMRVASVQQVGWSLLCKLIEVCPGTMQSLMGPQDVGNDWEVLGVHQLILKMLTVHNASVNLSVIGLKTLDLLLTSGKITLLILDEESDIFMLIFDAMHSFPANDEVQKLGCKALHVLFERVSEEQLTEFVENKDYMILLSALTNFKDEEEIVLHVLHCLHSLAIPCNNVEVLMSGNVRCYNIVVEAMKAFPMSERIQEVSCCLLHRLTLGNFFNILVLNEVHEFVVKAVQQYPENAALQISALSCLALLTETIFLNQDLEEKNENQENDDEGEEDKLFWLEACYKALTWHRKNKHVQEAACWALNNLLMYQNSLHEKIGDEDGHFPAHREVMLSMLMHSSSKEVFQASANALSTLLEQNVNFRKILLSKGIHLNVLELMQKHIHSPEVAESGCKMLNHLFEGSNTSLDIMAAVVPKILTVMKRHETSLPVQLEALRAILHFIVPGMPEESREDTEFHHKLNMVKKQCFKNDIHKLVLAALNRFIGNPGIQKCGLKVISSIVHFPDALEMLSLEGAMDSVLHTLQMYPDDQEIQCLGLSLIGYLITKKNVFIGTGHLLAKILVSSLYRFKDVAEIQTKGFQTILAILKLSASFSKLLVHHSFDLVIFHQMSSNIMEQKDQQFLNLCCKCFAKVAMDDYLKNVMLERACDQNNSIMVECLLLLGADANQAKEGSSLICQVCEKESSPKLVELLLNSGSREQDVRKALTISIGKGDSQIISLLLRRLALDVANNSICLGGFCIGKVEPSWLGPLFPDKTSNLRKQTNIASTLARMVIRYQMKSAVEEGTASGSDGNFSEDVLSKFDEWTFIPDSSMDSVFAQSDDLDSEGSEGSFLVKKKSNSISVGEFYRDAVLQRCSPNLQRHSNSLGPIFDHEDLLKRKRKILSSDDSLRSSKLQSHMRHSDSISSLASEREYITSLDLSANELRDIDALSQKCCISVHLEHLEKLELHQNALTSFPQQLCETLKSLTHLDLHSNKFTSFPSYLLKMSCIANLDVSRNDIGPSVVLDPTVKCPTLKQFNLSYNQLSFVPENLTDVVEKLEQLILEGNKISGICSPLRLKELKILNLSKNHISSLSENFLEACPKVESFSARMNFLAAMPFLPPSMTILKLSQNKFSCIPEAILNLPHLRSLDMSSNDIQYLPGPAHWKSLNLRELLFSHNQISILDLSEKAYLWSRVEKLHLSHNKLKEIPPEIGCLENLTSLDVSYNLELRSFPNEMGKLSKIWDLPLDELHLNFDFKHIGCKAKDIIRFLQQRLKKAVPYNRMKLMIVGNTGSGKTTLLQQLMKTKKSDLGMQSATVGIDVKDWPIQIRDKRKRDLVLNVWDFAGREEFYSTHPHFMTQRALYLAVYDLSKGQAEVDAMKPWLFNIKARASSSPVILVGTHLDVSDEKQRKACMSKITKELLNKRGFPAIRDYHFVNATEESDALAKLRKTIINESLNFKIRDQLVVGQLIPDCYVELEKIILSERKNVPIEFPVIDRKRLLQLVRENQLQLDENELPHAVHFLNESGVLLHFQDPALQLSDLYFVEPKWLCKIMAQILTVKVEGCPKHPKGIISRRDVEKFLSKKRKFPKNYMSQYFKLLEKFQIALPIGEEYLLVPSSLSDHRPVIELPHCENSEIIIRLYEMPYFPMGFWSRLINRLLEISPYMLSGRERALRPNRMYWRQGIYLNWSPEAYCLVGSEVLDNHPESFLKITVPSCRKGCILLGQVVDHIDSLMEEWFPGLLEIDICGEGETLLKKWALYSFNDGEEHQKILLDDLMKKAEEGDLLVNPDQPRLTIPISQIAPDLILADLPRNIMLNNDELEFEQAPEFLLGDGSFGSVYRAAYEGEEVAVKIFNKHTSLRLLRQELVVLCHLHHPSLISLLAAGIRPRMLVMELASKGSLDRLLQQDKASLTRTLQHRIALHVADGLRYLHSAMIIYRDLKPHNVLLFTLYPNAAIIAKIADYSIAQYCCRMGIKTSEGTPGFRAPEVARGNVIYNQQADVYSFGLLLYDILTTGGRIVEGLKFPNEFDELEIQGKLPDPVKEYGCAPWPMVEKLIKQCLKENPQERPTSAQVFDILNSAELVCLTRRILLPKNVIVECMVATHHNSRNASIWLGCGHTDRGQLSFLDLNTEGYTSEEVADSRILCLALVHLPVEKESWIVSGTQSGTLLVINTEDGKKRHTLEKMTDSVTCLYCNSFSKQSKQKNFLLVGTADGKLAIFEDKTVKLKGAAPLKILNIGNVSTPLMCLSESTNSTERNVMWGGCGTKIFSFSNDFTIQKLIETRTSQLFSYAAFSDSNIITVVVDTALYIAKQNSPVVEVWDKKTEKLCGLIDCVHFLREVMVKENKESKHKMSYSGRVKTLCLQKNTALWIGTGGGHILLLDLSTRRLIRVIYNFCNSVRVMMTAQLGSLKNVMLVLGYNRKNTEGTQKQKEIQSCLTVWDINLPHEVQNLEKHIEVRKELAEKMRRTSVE

Q: With `CC1(C)CC(=O)c2c(SCCCCCCN)sc(-c3cc[nH]n3)c2C1` [Example 24, 3-[(6-Aminohexyl)sulfanyl]-6,6-dimethyl-1-(1H-pyrazol-3-yl)-6,7-dihydro-2-benzothiophen-4(5H)-one] as the compound, how does the IC50 read?
A: Its IC50 is 70 nM.

Q: How did the IC50 turn out when `CC(C)CSc1sc(-c2cc[nH]n2)c2c1C(=O)CC(C)(C)C2` [Example 26, 6,6-Dimethyl-3-[(2-methylpropyl)sulfanyl]-1-(1H-pyrazol-3-yl)-6,7-dihydro-2-benzothiophen-4(5H)-one] was run?
A: Its IC50 is 120 nM.

Q: Which IC50 does the source give for `N#Cc1ccc(NC(=O)n2ccc(-c3sc(NC4CCCC4)c4c3CCCC4=O)n2)cc1` [Example 87, N-(4-cyanophenyl)-3-[3-(cyclopentylamino)-4-oxo-4,5,6,7-tetrahydro-2-benzothiophen-1-yl]-1H-pyrazole-1-carboxamide] here?
A: Its IC50 is 330 nM.

Q: Which IC50 does the source give for `CC1(C)CC(=O)c2c(SC3CCCC3)sc(-c3ccn(C(=O)Nc4ccc5ccccc5c4)n3)c2C1` [Example 63, 3-[3-(Cyclopentylsulfanyl)-6,6-dimethyl-4-oxo-4,5,6,7-tetrahydro-2-benzothiophen-1-yl]-N-(naphthalen-2-yl)-1H-pyrazole-1-carboxamide] here?
A: Its IC50 is 110 nM.

Q: Which IC50 does the source give for `CC(C)C(=O)n1ccc(-c2sc(SC3CCCC3)c3c2CC(C)(C)CC3=O)n1` [Example 78, 3-(Cyclopentylsulfanyl)-6,6-dimethyl-1-[1-(2-methylpropanoyl)-1H-pyrazol-3-yl]-6,7-dihydro-2-benzothiophen-4(5H)-one] here?
A: The IC50 was 1500 nM.

Q: How did the IC50 turn out when `CCNc1sc(-c2cc[nH]n2)c2c1C(=O)CC(C)(C)C2` [Example 38, 3-(Ethylamino)-6,6-dimethyl-1-(1H-pyrazol-3-yl)-6,7-dihydro-2-benzothiophen-4(5H)-one] was run?
A: The IC50 was 290 nM.

Q: With `CN(C)CCSc1sc(-c2cc[nH]n2)c2c1C(=O)CC(C)(C)C2` [Example 13, 3-{[2-(Dimethylamino)ethyl]sulfanyl}-6,6-dimethyl-1-(1H-pyrazol-3-yl)-6,7-dihydro-2-benzothiophen-4(5H)-one] as the compound, how does the IC50 read?
A: The IC50 was 520 nM.

Q: With `CC1(C)CC(=O)c2c(N3CCC3)sc(-c3cc[nH]n3)c2C1` [Example 40, 3-(Azetidin-1-yl)-6,6-dimethyl-1-(1H-pyrazol-3-yl)-6,7-dihydro-2-benzothiophen-4(5H)-one] as the compound, how does the IC50 read?
A: The IC50 was 580 nM.

Q: How did the IC50 turn out when `CC1(C)CC(=O)c2c(NCCc3ccccn3)sc(-c3cc[nH]n3)c2C1` [Example 47, 6,6-Dimethyl-1-(1H-pyrazol-3-yl)-3-{[2-(pyridin-2-yl)ethyl]amino}-6,7-dihydro-2-benzothiophen-4(5H)-one] was run?
A: Its IC50 is 290 nM.

Q: With `CC1(C)CC(=O)c2c(NC3CCCC3)sc(-c3ccn(C(=O)Nc4ccc(Cl)cc4)n3)c2C1` [Example 73, N-(4-Chlorophenyl)-3-[3-(cyclopentylamino)-6,6-dimethyl-4-oxo-4,5,6,7-tetrahydro-2-benzothiophen-1-yl]-1H-pyrazole-1-carboxamide] as the compound, how does the IC50 read?
A: Its IC50 is 280 nM.

Q: Which IC50 does the source give for `CCC(C)Sc1sc(-c2cc[nH]n2)c2c1C(=O)CC(C)(C)C2` (stereo not drawn) [Example 30, 3-(Butan-2-ylsulfanyl)-6,6-dimethyl-1-(1H-pyrazol-3-yl)-6,7-dihydro-2-benzothiophen-4(5H)-one] here?
A: The IC50 was 180 nM.

Q: How did the IC50 turn out when `CS(=O)(=O)c1sc(-c2cc[nH]n2)c2c1C(=O)CCC2` [Example 2, 3-(Methylsulfonyl)-1-(1H-pyrazol-3-yl)-6,7-dihydro-2-benzothiophen-4(5H)-one] was run?
A: The IC50 was 3500 nM.

Q: With `CSc1sc(-c2cc[nH]n2)c2c1C(=O)C(C)CC2` (stereo not drawn) [Example 91, 5-Methyl-3-(methylsulfanyl)-1-(1H-pyrazol-3-yl)-6,7-dihydro-2-benzothiophen-4(5H)-one] as the compound, how does the IC50 read?
A: Its IC50 is 150 nM.

Q: `CC1(C)CC(=O)c2c(SC3CCCC3)sc(-c3ccn(C(=O)Nc4ccc(C#N)cc4)n3)c2C1` [Example 64, N-(4-Cyanophenyl)-3-[3-(cyclopentylsulfanyl)-6,6-dimethyl-4-oxo-4,5,6,7-tetrahydro-2-benzothiophen-1-yl]-1H-pyrazole-1-carboxamide] was tested. Which IC50 did it give?
A: The IC50 was 85 nM.

Q: For `CSc1cccc(NC(=O)n2ccc(-c3sc(SC4CCCC4)c4c3CC(C)(C)CC4=O)n2)c1` [Example 61, 3-[3-(Cyclopentylsulfanyl)-6,6-dimethyl-4-oxo-4,5,6,7-tetrahydro-2-benzothiophen-1-yl]-N-[3-(methylsulfanyl)phenyl]-1H-pyrazole-1-carboxamide], which IC50 is on record?
A: Its IC50 is 110 nM.

Q: Which IC50 does the source give for `CCc1cc(-c2sc(SC)c3c2CC(C)(C)CC3=O)n[nH]1` [Example 90, 1-(5-Ethyl-1H-pyrazol-3-yl)-6,6-dimethyl-3-(methylsulfanyl)-6,7-dihydro-2-benzothiophen-4(5H)-one] here?
A: The IC50 was 450 nM.

Q: Which IC50 does the source give for `CC1(C)CC(=O)c2c(SCCCN=[N+]=[N-])sc(-c3cc[nH]n3)c2C1` [Example 21, 3-[(3-Azidopropyl)sulfanyl]-6,6-dimethyl-1-(1H-pyrazol-3-yl)-6,7-dihydro-2-benzothiophen-4(5H)-one] here?
A: Its IC50 is 200 nM.

Q: How did the IC50 turn out when `CC1(C)CC(=O)c2c(NC3CCCCC3)sc(-c3cc[nH]n3)c2C1` [Example 39, 3-(Cyclohexylaminn)-6,6-dimethyl-1-(1H-pyrazol-3-yl)-6,7-dihydro-2-benzothiophen-4(5H)-one] was run?
A: Its IC50 is 240 nM.

Q: For `COCCSc1sc(-c2cc[nH]n2)c2c1C(=O)CC(C)(C)C2` [Example 12, 3-[(2-Methoxyethyl)sulfanyl]-6,6-dimethyl-1-(1H-pyrrazol-3-yl)-6,7-dihydro-2-henzothiophen-4(5H)-one], which IC50 is on record?
A: Its IC50 is 290 nM.

Q: Which IC50 does the source give for `CSc1sc(-c2cc(C3CC3)[nH]n2)c2c1C(=O)CC(C)(C)C2` [Example 89, 1-(5-Cyclopropyl-1H-pyrazol-3-yl)-6,6-dimethyl-3-(methylsulfanyl)-6,7-dihydro-2-benzothiophen-4(5H)-one] here?
A: The IC50 was 470 nM.

Q: For `CCC(C)NC(=O)n1ccc(-c2sc(SC3CCCC3)c3c2CC(C)(C)CC3=O)n1` (stereo not drawn) [Example 71, N-(Butan-2-yl)-3-[3-(cyclopentylsulfanyl)-6,6-dimethyl-4-oxo-4,5,6,7-tetrahydro-2-benzothiophen-1-yl]-1H-pyrazole-1-carboxamide], which IC50 is on record?
A: The IC50 was 1700 nM.

Q: With `CC1(C)CC(=O)c2c(SCc3ccccc3)sc(-c3cc[nH]n3)c2C1` [Example 14, 3-(Benzylsulfanyl)-6,6-dimethyl-1-(1H-pyrazol-3-yl)-6,7-dihydro-2-benzothiophen-4(5H)-one] as the compound, how does the IC50 read?
A: The IC50 was 860 nM.

Q: `CCCSc1sc(-c2cc[nH]n2)c2c1C(=O)CC(C)(C)C2` [Example 28, 6,6-Dimethyl-3-(propylsulfanyl)-1-(1H-pyrazol-3-yl)-6,7-dihydro-2-benzothiophen-4(5H)-one] was tested. Which IC50 did it give?
A: The IC50 was 160 nM.

Q: With `CC1(C)CC(=O)c2c(SC3CCCC3)sc(-c3ccn(C(=O)c4ccc(F)cc4)n3)c2C1` [Example 81, 3-(Cyclopentylsulfanyl)-1-{1-[(4-fluorophenyl)carbonyl]-1H-pyrazol-3-yl}-6,6-dimethyl-6,7-dihydro-2-benzothiophen-4(5H)-one] as the compound, how does the IC50 read?
A: Its IC50 is 970 nM.

Q: `CC1(C)CC(=O)c2c(SCCO)sc(-c3cc[nH]n3)c2C1` [Example 10, 3-[(2-Hydroxyethyl)sulfanyl]-6,6-dimethyl-1-(1H-pyrazol-3-yl)-6,7-dihydro-2-benzothiophen-4(5H)-one] was tested. Which IC50 did it give?
A: Its IC50 is 240 nM.

Q: Which IC50 does the source give for `CNc1sc(-c2cc[nH]n2)c2c1C(=O)CC(C)(C)C2` [Example 36, 6,6-Dimethyl-3-(methylamino)-1-(1H-pyrazol-3-yl)-6,7-dihydro-2-benzothiophen-4(5H)-one] here?
A: Its IC50 is 760 nM.

Q: Which IC50 does the source give for `CC1(C)CC(=O)c2c(SC3CCCC3)sc(-c3ccn(C(=O)c4ccc(F)c(F)c4)n3)c2C1` [Example 84, 3-(Cyclopentylsulfanyl)-1-{1-[(3,4-difluorophenyl)carbonyl]-1H-pyrazol-3-yl}-6,6-dimethyl-6,7-dihydro-2-benzothiophen-4(5H)-one] here?
A: The IC50 was 400 nM.

Q: Which IC50 does the source give for `CC1(C)CC(=O)c2c(SCC[Si](C)(C)C)sc(-c3cc[nH]n3)c2C1` [Example 31, 6,6-Dimethyl-1-(1H-pyrazol-3-yl)-3-{[2-(trimethylsilyl)ethyl]sulfanyl}-6,7-dihydro-2-benzothiophen-4(5H)-one] here?
A: The IC50 was 1900 nM.

Q: Which IC50 does the source give for `CC1(C)CC(=O)c2c(NCc3ccco3)sc(-c3cc[nH]n3)c2C1` [Example 44, 3-[(Furan-2-ylmethyl)amino]-6,6-dimethyl-1-(1H-pyrazol-3-yl)-6,7-dihydro-2-benzothiophen-4(5H)-one] here?
A: Its IC50 is 380 nM.

Q: How did the IC50 turn out when `CC1(C)CC(=O)c2c(NCCCCCCO)sc(-c3cc[nH]n3)c2C1` [Example 50, 3-[(6-Hydroxyhexyl)amino]-6,6-dimethyl-1-(1H-pyrazol-3-yl)-6,7-dihydro-2-benzothiophen-4(5H)-one] was run?
A: The IC50 was 180 nM.

Q: `CC1(C)CC(=O)c2c(OC3CCC3)sc(-c3cc[nH]n3)c2C1` [Example 53, 3-(Cyclobutylexy)-6,6-dimethyl-1-(1H-pyrazol-3-yl)-6,7-dihydro-2-benzothiophen-4(5H)-one] was tested. Which IC50 did it give?
A: The IC50 was 430 nM.

Q: How did the IC50 turn out when `CC1(C)CC(=O)c2c(SC3CCCC3)sc(-c3ccn(C(=O)c4ccc(C#N)cc4)n3)c2C1` [Example 77, 4-({3-[3-(Cyclopentylsulfanyl)-6,6-dimethyl-4-oxo-4,5,6,7-tetrahydro-2-benzothiophen-1-yl]-1H-pyrazol-1-yl}carbonyl)benzonitrile] was run?
A: Its IC50 is 260 nM.

Q: Which IC50 does the source give for `CC1(C)CC(=O)c2c(SCCc3ccccc3)sc(-c3cc[nH]n3)c2C1` [Example 17, 6,6-Dimethyl-3-[(2-phenylethyl)sulfanyl]-1-(1H-pyrazol-3-yl)-6,7-dihydro-2-benzothiophen-4(5H)-one] here?
A: The IC50 was 450 nM.
